Assay results published in patent US12144840B2, “Method for treating or preventing benign prostatic hyperplasia” (priority 2017, dated 2024).
Where “and” joins values, the source holds several entries; their conditions need not be identical. Equal values may be shown once. Read-outs that look alike come from different tables or passages of the source.

Assays:
[1] = system: testosterone-induced benign prostatic hyperplasia; type: in vivo, male Wistar rats; conditions: BPH rats; for Ratio (b/a* 100): prostate weight/body weight
Description: (§1) After 6-week-old male Wistar rats (Samtako, Korea) were obtained and acclimated for one week, six animals constituted each test group when each animal weighed 340-350 g.
(§2) As for the test configuration, the animals were divided into groups without testicle removal and groups undergoing […] recovery after testicle removal, and each group was subcutaneously injected with 5 mg/kg testosterone to induce benign prostatic hyperplasia for weeks (BPH induced group). Test groups were constructed by oral administration of Aucklandiae Radix extracts and costunolide at different concentrations (mg/kg) once a day, seven times a week, for 8 weeks.
After the completion of the test, the rats of all the test groups were euthanized, and then prostate tissue and main organs were extracted, and weights and volumes thereof were measured using an electronic scale for animal weights and a caliper (mm^3) (Table 2).

RAW 264.7 cells [2] = assay: Nitric oxide (NO) change in LPS-activated macrophages (Griess reagent); type: cell-based; conditions: 200 ng LPS, various concentrations, 18 hours, vs LPS alone; dose-dependent (FIG. 1)
Description: (§3) RAW 264.7 cells, which were macrophages used in the present tests, were available from American Type Culture Collection (ATCC). These cells were cultured in CO2 incubator (Formascientific, Inc.) using DMEM containing 10% fetal bovine serum (FBS). The differentiation of cells was observed through microscopic observation, and then the cells were used in the tests.
To induce the activation of macrophages, RAW 264.7 cells were treated with 200 ng/ ? lipopolysaccharide (LPS) while simultaneously treated with various concentrations (μg/ ? ) of a 100% methanol extract of Aucklandiae Radix (expressed by MeOH 100%), a 30% ethanol extract of Aucklandiae Radix (expressed by EtOH 30%), and a 70% ethanol extract of Aucklandiae Radix (expressed by EtOH 70%), and costunolide, and then the cells were cultured in a 37° C., 5% CO2 incubator for 18 hours. After 18 hours, 100 ? of the supernatant was transferred to a new plate for each group, and 100 ? of a solution, in which Griess reagent A (2% sulfanilamide in 5% phosphoric acid) and Greiss reagent B (0.2% naphthylethylenediamine dihydrochloride) were mixed at a rate of 1:1, was added thereto. Thereafter, the absorbance was measured at 540 nm.

prostate tissue = assay: Prostate pathology biopsy (H&E) in BPH model rats; type: in vivo, male Wistar rats; conditions: oral once a day, 8 weeks
Description: as §1
as §2, with “weeks. Positive control groups were used by oral administration of finasteride, which has been used as a medicine for benign prostatic hyperplasia.” for “weeks.”
After the completion of the test, the prostate tissue extracted from each group was fixed with 10% neutral formalin and stored. The tissue of each group was processed into paraffin blocks, and slides for microscopic inspection of tissue were manufactured and stained with hematoxylin & eosin (H&E). The microscopic inspection of tissue was conducted through a microscope (Olympus, Tokyo, Japan) at a magnification of X200.

[3] = type: in vivo, male Wistar rats
Description: as §1
as §2, with “weeks. Positive control groups were used by oral administration of finasteride, which has been used as a medicine for benign prostatic hyperplasia.” for “weeks.”
For analysis of biochemical markers in serum, blood was obtained through the abdominal vein from rats of all the groups at necropsy. The blood was coagulated for about 30 minutes, and then centrifuged for 5 minutes at 10,000 rpm to separate serum. After serum separation, a biochemistry analyzer (AU480, Beckman Coulter, USA) was used to check liver function (AST, ALP), lipoprotein (total cholesterol (T-CHO)), HDL cholesterol (HDL-C), LDL cholesterol (LDL-C)), and kidney function ([…]) levels (Table 3).

RAW 264.7 cells [4] = assay: Inflammatory cytokine (IL-1β, IL-6, TNF-α) levels by ELISA in LPS-activated macrophages; type: cell-based; conditions: 200 ng LPS, various concentrations, 18 hours, vs cells treated with only LPS (FIG. 2)
Description: as §3
RAW 264.7 cells were treated with 200 ng/ ? LPS while simultaneously treated with various concentrations (μg/ ? ) of Aucklandiae Radix extracts (EtOH 30% and 70%) and costunolide, and then the cells were cultured in a 37° C., 5% CO2 incubator for 18 hours. After 18 hours, ELISA analysis kits (eBioScience 88-7013, 88-7064 USA, BD 555268 USA) were used to check the levels of the inflammatory cytokines IL-1β, IL-6, and TNF-α in the supernatant of each group.

[5] = positive control group, oral, dose not given
[6] = oral 0.075 mg/kg once a day, 8 weeks

For CC(C)(C)NC(=O)[C@H]1CC[C@H]2[C@@H]3CC[C@H]4NC(=O)C=C[C@]4(C)[C@H]3CC[C@]12C [Fina, finasteride], the “Body Weight (a)” value [1, 5] was 379 g and 415 g, the “Prostate Weight (b)” value [1, 5] was 1.23 g and 1.42 g and the Prostate volume [1, 5] was 2,322 mm^3 and 4,255 mm^3. The Speen weight [1, 5] was 0.60 g and 0.70 g and the “Ratio (b/a* 100)” value [1, 5] was 0.29 and 0.34.

With C=C1C(=O)O[C@@H]2/C=C(\C)CC/C=C(\C)CC[C@@H]12 [costunolide] the “amount of NO” value (RAW 264.7 cells [2]) was “significantly decreased”, the “endothelial thicknesses of prostate tissue (H&E, X200)” value (prostate tissue; compared with the benign prostatic hyperplasia induced group (FIGS. 4 and 5)) was “significantly reduced” and the “alveolar glands of prostate tissue (H&E, X200)” value (prostate tissue; similar to the normal control group (FIGS. 4 and 5)) was “maintained in a round shape without atrophy”. The “serum liver function, lipoprotein and kidney function levels (hepatoxicity and kidney toxicity)” value ([3]; BPH rats, oral once a day, 8 weeks, all administered groups) was “no significant changes”, the ALP ([3]; rat, in vivo, po, 0.075 mg/kg) was 61.17 U/L and the AST ([3]; rat, in vivo, po, 0.075 mg/kg) was 78.33 U/L. For the same compound, the CRE ([3]; rat, in vivo, po, 0.075 mg/kg) was 0.27 mg/dL, the HDL ([3]; rat, in vivo, po, 0.075 mg/kg) was 51.50 mg/dL and the LDL ([3]; rat, in vivo, po, 0.075 mg/kg) was 13.17 mg/dL. The T-CHO ([3]; rat, in vivo, po, 0.075 mg/kg) was 79.67 mg/dL, the “prostate weights and volumes” value ([1]; costunolide administration groups, printed as 0.075 μg/, compared with finasteride administration groups (FIG. 3)) was “significant reduction effect” and the “Body Weight (a)” value [1, 6] was 433 g. The Liver weight [1, 6] was 10.72 g, the “Prostate Weight (b)” value [1, 6] was 1.40 g and the Prostate volume [1, 6] was 4,126 mm^3. For the same compound, the Speen weight [1, 6] was 0.62 g, the “Ratio (b/a* 100)” value [1, 6] was 0.32 and the “secretion levels of the inflammatory cytokines (IL-1β, IL-6, TNF-α)” value (RAW 264.7 cells [4]) was “decreases”.
